Test results: patent US20240207427A1, “SELECTIVE DRUG RELEASE FROM INTERNALIZED CONJUGATES OF BIOLOGICALLY ACTIVE COMPOUNDS” (priority 2021, published 2024)
Where two headings read alike, the source gives them in different places.

Columns and labels:
Assay type in all cases: cell-based
Ls174T cells = test: In vitro potency (CellTiter-Glo, 96 h), Ls174T; settings: Homo sapiens
Method in brief: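 Four-day continuous exposure at 37 °C to serially diluted ADC or free camptothecin payload, in RPMI 1640 with 20% FBS after 24 h pre-plating. Luminescent signal gave IC50 (ng/mL; nmol/L).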

[1] = tested on: renal carcinoma cells (786-O); test: In vitro potency (CellTiter-Glo, 96 h), 786-O; settings: Homo sapiens, 786-0, 96 h
Method in brief: (§1)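 IC50 (ng/mL or nmol/L) derived from CellTiter-Glo luminescence after 96 h exposure at 37 °C to serial dilutions of ADC or CPT free drug. Log-phase cells had been plated 24 h beforehand in RPMI 1640 containing 20% FBS.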

[2] = tested on: anaplastic large cell lymphoma cells (DEL); test: In vitro potency (CellTiter-Glo, 96 h), DEL
Method in brief: (§2)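 Growth inhibition after 96 h at 37 °C with test article, measured by luminescence; cells in RPMI 1640, 20% FBS.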

melanoma cells (A2058) = test: In vitro potency (CellTiter-Glo, 96 h), A2058; settings: Homo sapiens, A2058, 96 h
Method in brief: as §1

[3] = tested on: anaplastic large cell lymphoma cells (Karpas299); test: In vitro potency (CellTiter-Glo, 96 h), Karpas299; settings: Homo sapiens, KARPAS-299, 96 h
Method in brief: as §1

[4] = tested on: pancreatic cancer cells (BxPC3); test: In vitro potency (CellTiter-Glo, 96 h), BxPC3; settings: Homo sapiens, BXPC-3, 96 h
Method in brief: (§3)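 Seed log-phase cells 24 h (RPMI 1640, 20% FBS); add ADC serial dilutions; incubate 96 h, 37 °C; read luminescence; IC50 in ng/mL.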

[5] = tested on: Hodgkin's lymphoma cells (L540cy); test: In vitro potency (CellTiter-Glo, 96 h), L540cy
Method in brief: as §1

[6] = tested on: non-small-cell lung cancer cells (Calu1); test: In vitro potency (CellTiter-Glo, 96 h), Calu1; settings: Homo sapiens, Calu-1, 96 h
Method in brief: as §1

[7] = tested on: B-lymphocyte cancer cells (SU-DHL4); test: In vitro potency (CellTiter-Glo, 96 h), SU-DHL-4; settings: Homo sapiens, SU-DHL-4, 96 h
Method in brief: as §2

[8] = tested on: anaplastic large cell lymphoma cells (DELBVR); test: In vitro potency (CellTiter-Glo, 96 h), DELBVR
Method in brief: as §1

[9] = tested on: breast cancer cells (MDA-MB-231); test: In vitro potency (CellTiter-Glo, 96 h), MDA-MB-231; settings: Homo sapiens, MDA-MB-231, 96 h
Method in brief: as §1

[10] = tested on: acute myeloid leukemia cells (MOLM-13); test: In vitro potency (CellTiter-Glo, 96 h), MOLM-13; settings: Homo sapiens, MOLM-13, 96 h
Method in brief: as §3

[11] = LS174T, CPT free drugs, Table 24, CellTiter-Glo after 96 h exposure, read-out: IC50 (nmol/L) Ls174T
[12] = CPT free drugs, Table 24, CellTiter-Glo after 96 h exposure, read-out: IC50 (nmol/L) 786-O
[13] = CPT free drugs, Table 24, CellTiter-Glo after 96 h exposure, read-out: IC50 (nmol/L) DEL
[14] = CPT free drugs, Table 24, CellTiter-Glo after 96 h exposure, read-out: IC50 (nmol/L) A2058
[15] = CPT free drugs, Table 24, CellTiter-Glo after 96 h exposure, read-out: IC50 (nmol/L) Karpas299
[16] = CPT free drugs, Table 24, CellTiter-Glo after 96 h exposure, read-out: IC50 (nmol/L) BxPC3
[17] = CPT free drugs, Table 24, CellTiter-Glo after 96 h exposure, read-out: IC50 (nmol/L) L540cy
[18] = CPT free drugs, Table 24, CellTiter-Glo after 96 h exposure, read-out: IC50 (nmol/L) Calu1
[19] = CPT free drugs, Table 24, CellTiter-Glo after 96 h exposure, read-out: IC50 (nmol/L) SU-DHL-4
[20] = CPT free drugs, Table 24, CellTiter-Glo after 96 h exposure, read-out: IC50 (nmol/L) DELBVR
[21] = CPT free drugs, Table 24, CellTiter-Glo after 96 h exposure, read-out: IC50 (nmol/L) MDAMB231
[22] = CPT free drugs, Table 24, CellTiter-Glo after 96 h exposure, read-out: IC50 (nmol/L) MOLM-13

CC[C@@]1(O)C(=O)OCc2c1cc1n(c2=O)Cc2c-1nc1ccc(SC(F)(F)F)cc1c2CN [Compound 2r]
IC50 (Ls174T cells; [11]): 15.6 nmol/L | IC50 [1, 12]: 21 nmol/L | IC50 [2, 13]: 4.4 nmol/L | IC50 (melanoma cells (A2058); [14]): 11 nmol/L | IC50 [3, 15]: 37 nmol/L | IC50 [4, 16]: 75 nmol/L | IC50 [5, 17]: 15 nmol/L | IC50 [6, 18]: 168 nmol/L | IC50 [7, 19]: 16 nmol/L | IC50 [8, 20]: 8.4 nmol/L | IC50 [9, 21]: 19 nmol/L | IC50 [10, 22]: 23 nmol/L

CC[C@@]1(O)C(=O)OCc2c1cc1n(c2=O)Cc2c-1nc1cc(F)c(C)c(-c3ccc(CO)s3)c1c2CN [Compound 6e]
IC50 (Ls174T cells; Table 28, CPT free drugs, Ls174T cells, 96 h, CellTiter-Glo, read-out: Ls174T IC50): 17 nmol/L | IC50 ([1]; Table 28, CPT free drugs, renal carcinoma cells 786-O, 96 h, CellTiter-Glo, read-out: 786-O IC50): 29 nmol/L | IC50 ([2]; Table 28, CPT free drugs, anaplastic large cell lymphoma cells DEL, CellTiter-Glo, read-out: DEL IC50): 4 nmol/L | IC50 (melanoma cells (A2058); Table 28, CPT free drugs, melanoma cells A2058, 96 h, CellTiter-Glo, read-out: A2058 IC50): 11 nmol/L | IC50 ([3]; Table 28, CPT free drugs, anaplastic large cell lymphoma cells Karpas299, 96 h, CellTiter-Glo, read-out: Karpas299 IC50): 31 nmol/L | IC50 ([4]; Table 28, CPT free drugs, pancreatic cancer cells BxPC3, 96 h, CellTiter-Glo, read-out: BxPC3 IC50): 65 nmol/L | IC50 ([5]; Table 28, CPT free drugs, Hodgkin's lymphoma cells L540cy, CellTiter-Glo, read-out: L540cy IC50): 18 nmol/L | IC50 ([6]; read-out: Calu1 IC50): 155 nmol/L | IC50 ([7]; Table 28, CPT free drugs, B-lymphocyte cancer cells SU-DHL4, 96 h, CellTiter-Glo, read-out: SU-DHL-4 IC50): 7 nmol/L | IC50 ([8]; Table 28, CPT free drugs, anaplastic large cell lymphoma cells DELBVR, CellTiter-Glo, read-out: DELBVR IC50): 4 nmol/L | IC50 ([9]; Table 28, CPT free drugs, breast cancer cells MDA-MB-231, 96 h, CellTiter-Glo, read-out: MDAMB231 IC50): 57 nmol/L | IC50 ([10]; Table 28, CPT free drugs, acute myeloid leukemia cells MOLM-13, 96 h, CellTiter-Glo, read-out: MOLM-13 IC50): 17 nmol/L

CC[C@@]1(O)C(=O)OCc2c1cc1n(c2=O)Cc2c-1nc1cc(F)c(OC)cc1c2CN [Compound 2i]
IC50 (Ls174T cells; [11]): 3.4 nmol/L | IC50 [1, 12]: 5 nmol/L | IC50 [2, 13]: 1 nmol/L | IC50 (melanoma cells (A2058); [14]): 2 nmol/L | IC50 [3, 15]: 5 nmol/L | IC50 [4, 16]: 10 nmol/L | IC50 [5, 17]: 2 nmol/L | IC50 [6, 18]: 31 nmol/L | IC50 [7, 19]: 4 nmol/L | IC50 [8, 20]: 1 nmol/L | IC50 [9, 21]: 4 nmol/L | IC50 [10, 22]: 13 nmol/L

CC[C@@]1(O)C(=O)OCc2c1cc1n(c2=O)Cc2c-1nc1cc(F)c(C)c(F)c1c2CN [Compound 2j]
IC50 (Ls174T cells; LS174T, 96 h, read-out: IC50 (nmol/L) Ls174T, CPT free drugs, Table 24, CellTiter-Glo after 96 h exposure): 3 nmol/L | IC50 ([1]; read-out: IC50 (nmol/L) 786-O, CPT free drugs, Table 24, CellTiter-Glo after 96 h exposure): 3 nmol/L | IC50 ([2]; read-out: IC50 (nmol/L) DEL, CPT free drugs, Table 24, CellTiter-Glo after 96 h exposure): 1 nmol/L | IC50 (melanoma cells (A2058); read-out: IC50 (nmol/L) A2058): 2 nmol/L | IC50 ([3]; read-out: IC50 (nmol/L) Karpas299, CPT free drugs, Table 24, CellTiter-Glo after 96 h exposure): 2 nmol/L | IC50 ([4]; read-out: IC50 (nmol/L) BxPC3, CPT free drugs, Table 24, CellTiter-Glo after 96 h exposure): 9 nmol/L | IC50 ([5]; read-out: IC50 (nmol/L) L540cy, CPT free drugs, Table 24, CellTiter-Glo after 96 h exposure): 1 nmol/L | IC50 ([6]; read-out: IC50 (nmol/L) Calu1): 23 nmol/L | IC50 ([7]; read-out: IC50 (nmol/L) SU-DHL-4, CPT free drugs, Table 24, CellTiter-Glo after 96 h exposure): 2 nmol/L | IC50 ([8]; read-out: IC50 (nmol/L) DELBVR, CPT free drugs, Table 24, CellTiter-Glo after 96 h exposure): 1 nmol/L | IC50 ([9]; read-out: IC50 (nmol/L) MDAMB231, CPT free drugs, Table 24, CellTiter-Glo after 96 h exposure): 2 nmol/L | IC50 ([10]; read-out: IC50 (nmol/L) MOLM-13, CPT free drugs, Table 24, CellTiter-Glo after 96 h exposure): 9 nmol/L

CC[C@@]1(O)C(=O)OCc2c1cc1n(c2=O)Cc2c-1nc1cc3c(cc1c2CNCCCS(N)(=O)=O)OCO3 [Compound 7e]
IC50 (Ls174T cells; LS174T, 96 h, read-out: Ls174T IC50, camptothecin free drug, 96 h): 17 nmol/L | IC50 ([1]; read-out: 786-O IC50, camptothecin free drug, 96 h): 25 nmol/L | IC50 ([2]; read-out: DEL IC50, camptothecin free drug, 96 h): 8 nmol/L | IC50 (melanoma cells (A2058); read-out: A2058 IC50): 5 nmol/L | IC50 ([3]; read-out: Karpas299 IC50, camptothecin free drug, 96 h): 27 nmol/L | IC50 ([4]; read-out: BxPC3 IC50, camptothecin free drug, 96 h): 21 nmol/L | IC50 ([5]; read-out: L540cy IC50, camptothecin free drug, 96 h): 13 nmol/L | IC50 ([6]; read-out: Calu1 IC50): 503 nmol/L | IC50 ([7]; read-out: SU-DHL-4 IC50, camptothecin free drug, 96 h): 16 nmol/L | IC50 ([8]; read-out: DELBVR IC50, camptothecin free drug, 96 h): 14 nmol/L | IC50 ([9]; read-out: MDAMB231 IC50, camptothecin free drug, 96 h): 124 nmol/L | IC50 ([10]; read-out: MOLM-13 IC50, camptothecin free drug, 96 h): 257 nmol/L
